Results as given in patent US7858790B2, “Modulators of muscarinic receptors” (Vertex Pharmaceuticals Incorporated, priority 2006, dated 2010).

Columns and labels:
M4 muscarinic receptor = target: T1, M4 muscarinic receptor (Homo sapiens, UniProt P08173); assay: Functional mobilization of intracellular calcium (FLIPR) in CHO cells expressing M4 muscarinic receptor; type: cell-based; conditions: for M4 Activity: CHO cells expressing M4, calcium mobilization; for Emax: CHO, 100% efficacy is the maximum response obtained with the Carbachol control
T1 construct: expressed in transfected cells; host or cells: CHO (M4-CHO recombinant cell line)
T1 sequence (P08173 1-479): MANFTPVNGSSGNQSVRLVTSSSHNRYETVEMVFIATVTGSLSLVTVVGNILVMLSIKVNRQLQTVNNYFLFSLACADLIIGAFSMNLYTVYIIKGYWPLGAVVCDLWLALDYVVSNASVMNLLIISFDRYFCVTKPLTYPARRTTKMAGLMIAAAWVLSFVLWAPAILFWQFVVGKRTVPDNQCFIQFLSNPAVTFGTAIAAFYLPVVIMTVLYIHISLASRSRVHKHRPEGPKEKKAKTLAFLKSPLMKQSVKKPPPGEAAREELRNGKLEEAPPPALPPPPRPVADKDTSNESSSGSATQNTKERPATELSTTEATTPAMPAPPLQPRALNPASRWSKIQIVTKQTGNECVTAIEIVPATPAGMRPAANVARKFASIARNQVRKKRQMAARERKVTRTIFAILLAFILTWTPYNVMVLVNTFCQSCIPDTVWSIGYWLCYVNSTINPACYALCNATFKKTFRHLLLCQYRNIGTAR
Description: (§1) VI. Assays for Detecting and Measuring Inhibition Properties of Compounds Functional Mobilization of Intracellular Calcium to Determine Muscarinic Receptor Activity:
(§2) CHO cells expressing muscarinic receptors (M1 to M5) are grown as monolayers in tissue culture flasks at 37° C. in a humidified atmosphere containing 5% CO2 and passaged every 3-5 days. The growth media is Dulbecco's modified eagles medium (DMEM, Gibco Cat# 12430-054), containing 25 mM Hepes and supplemented with Fetal Bovine Serum (Hyclone, cat# SH30071.03), 0.1 mM of MEM non-essential amino acids (GIBCO, Cat# 11140-050), 1 mM MEM Sodium Pyruvate (GIBCO Cat# 11360-070) and 100 units/ml of Penicillin G and 100 μg/ml of Streptomycin (GIBCO Cat# 15140-122). The recombinant muscarinic receptor cell lines are grown under antibiotic pressure with media containing 25 μg/ml zeocin and 500 μg/ml G418 (M1-CHO), 4 μg/ml puromycin, 50 μg/ml zeocin and 2.5 μg/ml blasticidin (M2 and M4-CHO) or 50 μg/ml zeocin and 4 μg/ml puromycin (M3 and M5-CHO).
(§3) Cells are harvested at 80-90% confluence using Versene (GIBCO Cat# 15040-066), collected by centrifugation and seeded 18-24 hours prior to running the calcium assay at a density of 5,000-10,000 cells/well in […], clear-bottomed 384-well plates (BD Biocoat, poly-D-lysine, Cat#356663). The day of the experiment, the cells are washed with a plate washer (Bioteck Instruments, ELX 405) using bath buffer (140-mM NaCl, 4.5-mM KCl, 2-mM CaCl2, 1-mM MgCl2, 10-mM Hepes-Na, 10-mM Glucose, pH 7.4, with NaOH) containing 1 mM Probenecid. Next, the calcium dye Fluo-3 (25 μl/well of Fluo-3 μM at 4 μM, Molecular Probes F-1241, in Bath 1 buffer containing 1 mM Probenecid) is added to the 25 μl of Bath 1 remaining in each well after the plate wash and the dye is loaded at 37° C. in the tissue culture incubator for 60-90 min. The fluorescent dye is removed using the plate washer with Bath 1 containing 1 mM Probenecid, leaving 25 μl/well of this solution after the wash. Alternatively, cells can be loaded with the calcium indicator from Molecular Devices (Calcium 3 Assay Reagents, Cat # R7181) adding 5 μl of a 5× solution dye in Bath 1 containing 1 mM Probenecid (10 ml per dye flask cat# R7182 to generate a solution 20×) to 20 μl of the same buffer. After loading for 60 min, the experiment can be run without having to remove the dye.
(§4) Compounds are prepared at a 2× fold concentration in a 96-well plate (round bottom, Costar Corning cat# 3656), by reconstituting the pre-spotted compounds in bath 1 containing 1 mM probenecid. The final concentration DMSO is 0.5%, and the amount of DMSO is normalized across the assay plate. To determine an agonist action of the compounds on muscarinic receptors, the reconstituted compounds are added (25 μl compound/well) to the cell assay plate (containing 25 μl/well) using the multi-channel robotic system of the FLIPR 3 Instrument (Molecular Devices, Sunnyvale, Calif.). To determine a functional inhibitory-action of the compounds on muscarinic receptors, the reconstituted compounds are added (25 μl compound/well) to the assay plate and pre-incubated for 15 min prior to adding 25 μl of Carbachol at 3× the EC80 for each muscarinic subtype. Alternatively, the compounds can be co-applied simultaneously with the agonist. In both assay modes, the fluorescence is recorded for 60 sec (excitation wavelength is […] and emission wavelength 540 nm) using the FLIPR 3 instrument.
(§5) The potency, efficacy and selectivity of the muscarinic compounds were evaluated by screening the compound activity across the whole family (M1 to M5 cells). Compounds were also screened for activity on other proteins such as other GPCRs and ion channels to determine selectivity on M4 receptors.
(§6) Examples of activities and efficacies of the muscarinic compounds of formulae (I, Ia, and Ib) on modulating M1 and M4 receptors are shown below in Table 8. […]

M1 muscarinic receptor = target: T2, M1 muscarinic receptor (Homo sapiens, UniProt P11229); assay: Functional mobilization of intracellular calcium (FLIPR) in CHO cells expressing M1 muscarinic receptor; type: cell-based; conditions: for M1 Activity: CHO cells expressing M1, calcium mobilization; for Emax: CHO, 100% efficacy is the maximum response obtained with the Carbachol control
T2 construct: expressed in transfected cells; host or cells: CHO (M1-CHO recombinant cell line)
T2 sequence (P11229 1-460): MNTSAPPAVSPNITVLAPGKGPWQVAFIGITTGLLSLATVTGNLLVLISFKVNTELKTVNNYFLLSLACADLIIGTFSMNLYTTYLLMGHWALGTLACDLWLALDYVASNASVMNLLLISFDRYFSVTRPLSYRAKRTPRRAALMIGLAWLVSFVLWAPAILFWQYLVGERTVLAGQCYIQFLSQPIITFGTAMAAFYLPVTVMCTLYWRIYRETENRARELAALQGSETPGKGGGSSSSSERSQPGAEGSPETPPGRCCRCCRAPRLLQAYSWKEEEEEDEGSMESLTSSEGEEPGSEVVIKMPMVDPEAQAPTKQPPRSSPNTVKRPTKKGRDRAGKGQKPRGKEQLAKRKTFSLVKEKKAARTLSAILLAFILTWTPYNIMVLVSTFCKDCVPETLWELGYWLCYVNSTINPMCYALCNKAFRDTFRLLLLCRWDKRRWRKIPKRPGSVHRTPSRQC
Description: as §1, §2, §3, §4, §5, §6

| SMILES | M4 Activity (M4 muscarinic receptor) | Emax (M4 muscarinic receptor) | M1 Activity (M1 muscarinic receptor) | Emax (M1 muscarinic receptor) |
| --- | --- | --- | --- | --- |
| CCC(CC)NC(=O)C1=CC2(CCN(C3CCCC3)CC2)c2ccccc21 [compound 17] | + (activity was measured to be greater than 10.0 μM) | 25 to 100% | + (activity was measured to be greater than 10.0 μM) | < 25% |
| CCC(CC)NC(=O)C1=CC2(CCN(C3CCN(C(=O)N4CCOCC4)CC3)CC2)c2ccccc21 [compound 18] | + (activity was measured to be greater than 10.0 μM) | < 25% | + (activity was measured to be greater than 10.0 μM) | < 25% |
| CNC(=O)C1=CC2(CCN(CCC(C)CCCC(C)(C)OC)CC2)c2ccccc21 (centres unmarked) [compound 19] | + (activity was measured to be greater than 10.0 μM) | < 25% | + (activity was measured to be greater than 10.0 μM) | 25 to 100% |
| CCC(CC)NC(=O)C1=CC2(CCN(C3CCN(C(=O)C(C)C)CC3)CC2)c2ccccc21 [compound 22] | + (activity was measured to be greater than 10.0 μM) | < 25% | + (activity was measured to be greater than 10.0 μM) | < 25% |
| C=CCOC(=O)N1CCC(N2CCC3(C=C(C(=O)NC(CC)CC)c4ccccc43)CC2)CC1 [compound 24] | ++ (activity was measured to be from 2.0 μM to 10.0 μM) | 25 to 100% | + (activity was measured to be greater than 10.0 μM) | 25 to 100% |
| CC(C)(C)CCN1CCC2(C=C(C(=O)NC3CCCCC3)c3ccccc32)CC1 [compound 25] | + (activity was measured to be greater than 10.0 μM) | < 25% | ++ (activity was measured to be from 2.0 μM to 10.0 μM) | 25 to 100% |
| CCN(CC)C(=O)C1=CC2(CCN(CCC(C)(C)C)CC2)c2ccccc21 [compound 26] | + (activity was measured to be greater than 10.0 μM) | < 25% | + (activity was measured to be greater than 10.0 μM) | < 25% |
| CCOC(=O)N1CCC(N2CCC3(C=C(C(=O)NC(CC)CC)c4ccccc43)CC2)CC1 [compound 28] | +++ (activity was measured to be less than 2.0 μM) | 25 to 100% | ++ (activity was measured to be from 2.0 μM to 10.0 μM) | 25 to 100% |
| O=C(C1=CCC2(CCN(C3C[C@@H]4CC[C@@H]3C4)CC2)c2ccccc21)N1CCCC1 (some centres unmarked) [compound 29] | + (activity was measured to be greater than 10.0 μM) | < 25% | + (activity was measured to be greater than 10.0 μM) | < 25% |
| CCC(CC)NC(=O)C1=CC2(CCN(CC3CC4C=CC3C4)CC2)c2ccccc21 (centres unmarked) [compound 30] | +++ (activity was measured to be less than 2.0 μM) | 25 to 100% | + (activity was measured to be greater than 10.0 μM) | < 25% |
| O=C(NC1CC1)C1=CC2(CCN(CC3CC4C=CC3C4)CC2)c2ccccc21 (centres unmarked) [compound 32] | +++ (activity was measured to be less than 2.0 μM) | 25 to 100% | + (activity was measured to be greater than 10.0 μM) | 25 to 100% |
| CCC(CC)NC(=O)C1=CC2(CCN(C3CCN(C(=O)N(C)C)CC3)CC2)c2ccccc21 [compound 33] | + (activity was measured to be greater than 10.0 μM) | < 25% | + (activity was measured to be greater than 10.0 μM) | < 25% |
| O=C(C1=CCC2(CCN(CC3CC4C=CC3C4)CC2)c2ccccc21)N1CCCC1 (centres unmarked) [compound 34] | + (activity was measured to be greater than 10.0 μM) | < 25% | +++ (activity was measured to be less than 2.0 μM) | 25 to 100% |
| N#CC1=CCC2(CCN(C3C[C@@H]4CC[C@@H]3C4)CC2)c2ccccc21 (some centres unmarked) [compound 35] | ++ (activity was measured to be from 2.0 μM to 10.0 μM) | < 25% | + (activity was measured to be greater than 10.0 μM) | < 25% |
| CC(C)NC(=O)C1=CCC2(CCN(C3C[C@@H]4CC[C@@H]3C4)CC2)c2ccccc21 (some centres unmarked) [compound 36] | + (activity was measured to be greater than 10.0 μM) | < 25% | + (activity was measured to be greater than 10.0 μM) | < 25% |
| CCC(CC)NC(=O)C1=CC2(CCN(CCC(C)(C)C)CC2)c2ccccc21 [compound 39] | ++ (activity was measured to be from 2.0 μM to 10.0 μM) | 25 to 100% | + (activity was measured to be greater than 10.0 μM) | < 25% |
| CCC(CC)NC(=O)C1=CC2(CCN(CCC(C)C)CC2)c2ccccc21 [compound 40] | ++ (activity was measured to be from 2.0 μM to 10.0 μM) | 25 to 100% | + (activity was measured to be greater than 10.0 μM) | < 25% |
| CNC(=O)C1=CC2(CCN(C3CCCCCC3)CC2)c2ccccc21 [compound 41] | +++ (activity was measured to be less than 2.0 μM) | 25 to 100% | ++ (activity was measured to be from 2.0 μM to 10.0 μM) | 25 to 100% |
| CCCOC(=O)N1CCC(N2CCC3(C=C(C(=O)NC(CC)CC)c4ccccc43)CC2)CC1 [compound 42] | + (activity was measured to be greater than 10.0 μM) | < 25% | + (activity was measured to be greater than 10.0 μM) | < 25% |
| CCOC(=O)N1CCC(N2CCC3(CC=C(C(=O)N4CCCC4)c4ccccc43)CC2)CC1 [compound 43] | +++ (activity was measured to be less than 2.0 μM) | 25 to 100% | +++ (activity was measured to be less than 2.0 μM) | 25 to 100% |
